In patent US20100267561A1, “HERBICIDAL PYRIDAZINONE DERIVATIVES” (priority 2007, published 2010):

How the values were obtained:
Experiment in all cases: Test B pre-/postemergence plant response
Type in all cases: in vivo
[1] = test system: cocklebur (Xanthium strumarium)
Procedure, shortened: (§1)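 Visual scoring from 0 (no effect) to 100 (complete control) against untreated controls was done 13 to 15 days after greenhouse treatment. Chemicals were formulated in a surfactant-containing non-phytotoxic solvent and applied to soil preemergence or to 1- to 4-leaf (2-18 cm) plants postemergence.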

corn (Zea mays) = test system: corn (Zea mays)
Procedure, shortened: as §1

[2] = test system: woolly cupgrass (Eriochloa villosa)
Procedure, shortened: as §1

[3] = test system: catchweed bedstraw (Galium aparine); conditions: Preemergence
Procedure, shortened: as §1

[4] = test system: large crabgrass (Digitaria sanguinalis)
Procedure, shortened: as §1

wild oat (Avena fatua) = test system: wild oat (Avena fatua)
Procedure, shortened: as §1

[5] = test system: blackgrass (Alopecurus myosuroides)
Procedure, shortened: as §1

[6] = test system: yellow nutsedge (Cyperus esculentus)
Procedure, shortened: as §1

[7] = test system: velvetleaf (Abutilon theophrasti)
Procedure, shortened: as §1

[8] = test system: pigweed (Amaranthus retroflexus)
Procedure, shortened: as §1

[9] = test system: lambsquarters (Chenopodium album)
Procedure, shortened: as §1

[10] = test system: green foxtail (Setaria viridis)
Procedure, shortened: as §1

kochia (Kochia scoparia) = test system: kochia (Kochia scoparia)
Procedure, shortened: as §1

[11] = test system: common ragweed (Ambrosia elation)
Procedure, shortened: as §1

[12] = Postemergence, 31 g ai/ha, scale 0 to 100, 0 no effect, 100 complete control
[13] = Postemergence, 62 g ai/ha, scale 0 to 100
[14] = Postemergence, 125 g ai/ha, scale 0 to 100
[15] = Postemergence, 250 g ai/ha, scale 0 to 100
[16] = Preemergence, 31 g ai/ha, 0 to 100 scale, 0 no effect, 100 complete control
[17] = Preemergence, 62 g ai/ha, scale 0 to 100
[18] = Preemergence, 125 g ai/ha, scale 0 to 100
[19] = Preemergence, 250 g ai/ha, scale 0 to 100

SMILES: Cc1nn(C)c(=O)c(-n2nc(-c3ccc(Cl)cc3)cc2C)c1O [Compound 15]
- Plant response rating, Cocklebur [1, 12]: 0
- Plant response rating, Cocklebur [1, 13]: 0
- Plant response rating, Cocklebur [1, 14]: 0
- Plant response rating, Cocklebur [1, 15]: 0
- Plant response rating, Cocklebur [1, 16]: 0
- Plant response rating, Cocklebur [1, 17]: 0
- Plant response rating, Cocklebur [1, 18]: 0
- Plant response rating, Cocklebur [1, 19]: 10
- Plant response rating, Corn (corn (Zea mays); [12]): 90
- Plant response rating, Corn (corn (Zea mays); [13]): 95
- Plant response rating, Corn (corn (Zea mays); [14]): 95
- Plant response rating, Corn (corn (Zea mays); [16]): 50
- Plant response rating, Corn (corn (Zea mays); [17]): 98
- Plant response rating, Corn (corn (Zea mays); [18]): 100
- Plant response rating, Corn (corn (Zea mays); [19]): 100
- Plant response rating, Cupgrass, Woolly [2, 13]: 100
- Plant response rating, Cupgrass, Woolly [2, 14]: 100
- Plant response rating, Cupgrass, Woolly [2, 15]: 100
- Plant response rating, Cupgrass, Woolly [2, 16]: 60
- Plant response rating, Cupgrass, Woolly [2, 17]: 85
- Plant response rating, Cupgrass, Woolly [2, 18]: 90
- Plant response rating, Cupgrass, Woolly [2, 19]: 98
- Plant response rating, Galium ([3]; 31 g ai/ha, 0 to 100 scale, 0 no effect, 100 complete control): 0
- Plant response rating, Galium ([3]; 62 g ai/ha, scale 0 to 100): 0
- Plant response rating, Galium ([3]; 125 g ai/ha, scale 0 to 100): 10
- Plant response rating, Galium ([3]; 250 g ai/ha, scale 0 to 100): 100
- Plant response rating, Crabgrass, Large [4, 12]: 90
- Plant response rating, Crabgrass, Large [4, 13]: 90
- Plant response rating, Crabgrass, Large [4, 14]: 98
- Plant response rating, Crabgrass, Large [4, 15]: 100
- Plant response rating, Crabgrass, Large [4, 16]: 85
- Plant response rating, Crabgrass, Large [4, 17]: 100
- Plant response rating, Crabgrass, Large [4, 18]: 100
- Plant response rating, Crabgrass, Large [4, 19]: 100
- Plant response rating, Oat, Wild (wild oat (Avena fatua); [12]): 95
- Plant response rating, Oat, Wild (wild oat (Avena fatua); [13]): 98
- Plant response rating, Oat, Wild (wild oat (Avena fatua); [14]): 98
- Plant response rating, Oat, Wild (wild oat (Avena fatua); [15]): 100
- Plant response rating, Oat, Wild (wild oat (Avena fatua); [16]): 10
- Plant response rating, Oat, Wild (wild oat (Avena fatua); [17]): 70
- Plant response rating, Oat, Wild (wild oat (Avena fatua); [18]): 80
- Plant response rating, Oat, Wild (wild oat (Avena fatua); [19]): 85
- Blackgrass plant response rating ([5]; 250 g ai/ha, preemergence, 0-100 scale): 100
- Plant response rating, Blackgrass [5, 12]: 90
- Plant response rating, Blackgrass [5, 13]: 95
- Plant response rating, Blackgrass [5, 14]: 95
- Plant response rating, Blackgrass [5, 15]: 98
- Plant response rating, Blackgrass [5, 16]: 100
- Plant response rating, Blackgrass [5, 17]: 100
- Plant response rating, Blackgrass [5, 18]: 100
- Plant response rating, Nutsedge, Yellow [6, 13]: 0
- Plant response rating, Nutsedge, Yellow [6, 14]: 0
- Plant response rating, Nutsedge, Yellow [6, 15]: 0
- Plant response rating, Nutsedge, Yellow [6, 16]: 0
- Plant response rating, Nutsedge, Yellow [6, 17]: 0
- Plant response rating, Nutsedge, Yellow [6, 19]: 0
- Plant response rating, Velvetleaf [7, 12]: 0
- Plant response rating, Velvetleaf [7, 13]: 0
- Plant response rating, Velvetleaf [7, 14]: 0
- Plant response rating, Velvetleaf [7, 15]: 0
- Plant response rating, Velvetleaf [7, 16]: 0
- Plant response rating, Velvetleaf [7, 17]: 0
- Plant response rating, Velvetleaf [7, 19]: 0
- Plant response rating, Pigweed [8, 12]: 0
- Plant response rating, Pigweed [8, 13]: 0
- Plant response rating, Pigweed [8, 14]: 0
- Plant response rating, Pigweed [8, 15]: 0
- Plant response rating, Pigweed [8, 16]: 0
- Plant response rating, Pigweed [8, 17]: 0
- Plant response rating, Pigweed [8, 18]: 0
- Plant response rating, Pigweed [8, 19]: 0
- Plant response rating, Lambsquarters [9, 12]: 0
- Plant response rating, Lambsquarters [9, 13]: 0
- Plant response rating, Lambsquarters [9, 14]: 0
- Plant response rating, Lambsquarters [9, 15]: 0
- Plant response rating, Lambsquarters [9, 16]: 0
- Plant response rating, Lambsquarters [9, 17]: 0
- Plant response rating, Lambsquarters [9, 18]: 0
- Plant response rating, Lambsquarters [9, 19]: 0
- Plant response rating, Foxtail, Green [10, 12]: 95
- Plant response rating, Foxtail, Green [10, 13]: 95
- Plant response rating, Foxtail, Green [10, 14]: 100
- Plant response rating, Foxtail, Green [10, 15]: 100
- Plant response rating, Foxtail, Green [10, 16]: 100
- Plant response rating, Foxtail, Green [10, 17]: 100
- Plant response rating, Foxtail, Green [10, 18]: 100
- Plant response rating, Foxtail, Green [10, 19]: 100
- Plant response rating, Kochia (kochia (Kochia scoparia); [12]): 0
- Plant response rating, Kochia (kochia (Kochia scoparia); [13]): 0
- Plant response rating, Kochia (kochia (Kochia scoparia); [14]): 0
- Plant response rating, Kochia (kochia (Kochia scoparia); [15]): 0
- Plant response rating, Kochia (kochia (Kochia scoparia); [17]): 0
- Plant response rating, Ragweed [11, 12]: 0
- Plant response rating, Ragweed [11, 13]: 0
- Plant response rating, Ragweed [11, 14]: 0
- Plant response rating, Ragweed [11, 15]: 40
- Plant response rating, Ragweed [11, 16]: 0
- Plant response rating, Ragweed [11, 17]: 0
- Plant response rating, Ragweed [11, 18]: 0
- Plant response rating, Ragweed [11, 19]: 0
